Assay: Stirring Double-Sink PAMPA-BBB permeability assay
Type: in vitro ADME, porcine
Conditions: for PAMPA-BBB permeability category of control compound: control compounds used in each plate, category in words; for Papp at 60 min, 0.05 mM: pig, PAMPA, control compounds run in each plate for over 50 plates, 0.5% DMSO, phosphate buffer, room temperature, UV readout, read-out: PAMPA-BBB permeability Pe (mean ± S.D)
Text: The stirring Double-SinkTM PAMPA-BBB method patented by Pion Inc. (Billerica, MA) was employed to determine the permeability of compounds ([[…], 2013]). The PAMPA lipid membrane, which consists of porcine brain lipid extract dissolved in alkane (Pion Inc.), was optimized to predict BBB passive permeability. This membrane was immobilized on a PVDF matrix of a 96 well “acceptor” filter plate placed on top of a 96 well “donor” plate containing coated magnetic stirrers. The test articles, stocked in 10 mM DMSO solutions, were diluted to 0.05 mM in aqueous phosphate buffer and the concentration of DMSO was 0.5% in the final solution. During the 60-min permeation study period, conducted at room temperature, the test samples in the donor compartment were stirred using the Gutbox technology (Pion Inc.) to reduce the aqueous boundary layer to 60 μm. The test article concentrations in the “donor” and “acceptor” compartments were measured using a UV plate reader (Nano Quant, Infinite® 200 PRO, Tecan Inc., Männedorf, Switzerland). Permeability (Pe) calculations were performed using Pion Inc. Software and were expressed in units of 10^-6 cm/s.

SMILES | PAMPA-BBB permeability category of control compound | Papp at 60 min, 0.05 mM [×10⁻⁶ cm/s]
Cn1c(=O)c2c(ncn2C)n(C)c1=O [Caffeine, caffeine] | low permeability | < 1
NC(=O)N1c2ccccc2C=Cc2ccccc21 [Carbamazepine, carbamazepine] | moderate permeability | 21 ± 2.3
CC(=O)[C@H]1CC[C@H]2[C@@H]3CCC4=CC(=O)CC[C@]4(C)[C@H]3CC[C@]12C [Progesterone, progesterone] | high permeability | 87 ± 10.1
